From ChEMBL document CHEMBL5370649, “Novel Coumarin Derivatives Inhibit the Quorum Sensing System and Iron Homeostasis as Antibacterial Synergists against Pseudomonas aeruginosa” (J Med Chem, 2023)
The source made the active and inactive calls. No cut-off for these calls is given here.

Key:
[1] = system: Pseudomonas aeruginosa; assay: Antibiofilm activity against Pseudomonas aeruginosa PAO1 pvds-defective mutant assessed as inhibition of biofilm formation at 1.25 to 20 uM incubated for 24 hrs by crystal violet staining based absorbance assay; type: functional, organism-based; conditions: dose 1.25-20 µM
[2] = system: Pseudomonas aeruginosa; assay: Upregulation of pvdE expression in Pseudomonas aeruginosa PAO1 at 20 uM incubated for 24 hrs by RNA sequencing analysis; type: functional
[3] = Toxicity in Balb/c mouse wound infection model infected with Pseudomonas aeruginosa PAO1 assessed as morphological changes in liver at 50 uM,TOP for 3 days in Ciprofloxacin by H and E staining based analysis; type: tissue-based; conditions: in vivo, topical_or_ocular, 72 h, time 3 day
[4] = Toxicity in Balb/c mouse wound infection model infected with Pseudomonas aeruginosa PAO1 assessed as morphological changes in liver at 50 uM,TOP for 3 days in Tobramycin by H and E staining based analysis; type: tissue-based; conditions: in vivo, topical_or_ocular, 72 h, time 3 day
[5] = system: A549; assay: Cytotoxicity against human A549 cells assessed as reduction in cell viability upto 50 uM incubated for 24 hrs by MTT assay; type: toxicity, cell-based; conditions: a549, 24 h
[6] = Toxicity in Balb/c mouse wound infection model infected with Pseudomonas aeruginosa PAO1 assessed as morphological changes in kidney at 50 uM,TOP for 3 days in Ciprofloxacin by H and E staining based analysis; type: tissue-based; conditions: in vivo, topical_or_ocular, 72 h, time 3 day
[7] = system: Pseudomonas aeruginosa; assay: Upregulation of fpvA expression in Pseudomonas aeruginosa PAO1 at 20 uM incubated for 24 hrs by RNA sequencing analysis; type: functional
[8] = system: Pseudomonas aeruginosa; assay: Synergistic antibacterial activity against Pseudomonas aeruginosa PAO1 infected in Balb/c mouse wound infection model assessed as healing degree of wound at 50 uM,TOP QD for 3 days and measured after 9 days in presence of Tobramycin; type: functional, organism-based; conditions: time 3.0 day
[9] = system: Pseudomonas aeruginosa; assay: Upregulation of pvdJ expression in Pseudomonas aeruginosa PAO1 at 20 uM incubated for 24 hrs by RNA sequencing analysis; type: functional
[10] = system: Pseudomonas aeruginosa; assay: Antibacterial activity against Pseudomonas aeruginosa PAO1 in ABTGC medium assessed as bacterial growth inhibition incubated for 16 hrs; type: functional
[11] = system: Pseudomonas aeruginosa; assay: Downregulation of trpG expression in Pseudomonas aeruginosa PAO1 at 20 uM incubated for 24 hrs by RNA sequencing analysis; type: functional
[12] = system: Pseudomonas aeruginosa; assay: Antibiofilm activity against Pseudomonas aeruginosa PAO1 fpvA-overexpressing mutant assessed as inhibition of biofilm formation at 1.25 to 20 uM incubated for 24 hrs by crystal violet staining based absorbance assay; type: functional, organism-based; conditions: dose 1.25-20 µM
[13] = system: L02; assay: Cytotoxicity against human L02 cells assessed as reduction in cell viability upto 50 uM incubated for 24 hrs by MTT assay; type: toxicity, cell-based; conditions: l02, 24 h
[14] = system: Pseudomonas aeruginosa; assay: Inhibition of iron homeostasis in Pseudomonas aeruginosa PAO1 in ABTGC medium assessed as decrease in iron level at 1.25 to 20 uM in presence of FeCl3 by fluorescence based microplate reader analysis (Rvb= 9.6+/-2.00 microM); type: functional; conditions: dose 1.25-20 µM
[15] = system: Pseudomonas aeruginosa; assay: Antibiofilm activity against Pseudomonas aeruginosa PAO1 in ABTGC medium assessed as inhibition of biofilm formation incubated for 24 hrs by crystal violet staining based absorbance assay; type: functional, organism-based; conditions: PAO1, 24 h
[16] = Metal chelating activity assessed as Fe3+-compound complex formation assessed as pFe(III) value by fluorescence method
[17] = Toxicity in Balb/c mouse wound infection model infected with Pseudomonas aeruginosa PAO1 assessed as morphological changes in lung at 50 uM,TOP for 3 days in Tobramycin by H and E staining based analysis; type: tissue-based; conditions: in vivo, topical_or_ocular, 72 h, time 3 day
[18] = system: Pseudomonas aeruginosa; assay: Inhibition of iron homeostasis in Pseudomonas aeruginosa PAO1 in ABTGC medium assessed as increase in iron-free pyochelin production at 1.25 to 20 uM in presence of FeCl3 by fluorescence based microplate reader analysis; type: functional, organism-based; conditions: dose 1.25-20 µM
[19] = Inhibition of quorum sensing system in Pseudomonas aeruginosa PAO1-pqsA-gfp assessed as inhibition of GFP fluorescence expression at 1.25 to 20 uM and measured for 12 hrs at 15 mins interval by fluorescence assay; conditions: dose 1.25-20 µM
[20] = system: Pseudomonas aeruginosa; assay: Antibiofilm activity against in Pseudomonas aeruginosa PAO1 assessed as pilus formation at 5 to 40 uM incubated for 16 hrs by SEM analysis; type: functional, organism-based; conditions: dose 5-40 µM
[21] = system: Pseudomonas aeruginosa; assay: Synergistic antibacterial activity against Pseudomonas aeruginosa PAO1 infected in Balb/c mouse wound infection model assessed as reduction in bacterial infection at 50 uM,TOP QD for 3 days in presence of Ciprofloxacin by CFU assay; type: functional; set-up: scale not given: the % may be the effect or the level left; conditions: time 3 day
[22] = system: Pseudomonas aeruginosa; assay: Downregulation of pilI expression in Pseudomonas aeruginosa PAO1 at 20 uM incubated for 24 hrs by RNA sequencing analysis; type: functional
[23] = Inhibition of quorum sensing system in Pseudomonas aeruginosa PAO1-lasB-gfp assessed as inhibition of GFP fluorescence expression at 1.25 to 20 uM and measured for 12 hrs at 15 mins interval by fluorescence assay; conditions: dose 1.25-20 µM
[24] = system: Pseudomonas aeruginosa; assay: Inhibition of iron homeostasis in Pseudomonas aeruginosa PAO1 in ABTGC medium assessed as increase in iron-free pyoverdine production at 1.25 to 20 uM in presence of FeCl3 by fluorescence based microplate reader analysis; type: functional, organism-based; conditions: dose 1.25-20 µM
[25] = Toxicity in Balb/c mouse wound infection model infected with Pseudomonas aeruginosa PAO1 assessed as body weight change at 50 uM,TOP for 3 days in Ciprofloxacin; conditions: in vivo, topical_or_ocular, 72 h, time 3 day
[26] = system: Pseudomonas aeruginosa; assay: Antibiofilm activity against Pseudomonas aeruginosa PAO1 assessed as inhibition of biofilm formation at 0.5 to 10 uM incubated for 24 hrs by SYTO9 and PI staining based 3D fluorescence confocal microscopy imaging analysis; type: functional, organism-based; conditions: dose 0.5-10 µM
[27] = molecular target: T1, Transcriptional activator protein LasR (Pseudomonas aeruginosa (strain ATCC 15692 / PAO1 / 1C / PRS 101 / LMG12228)) (UniProt P25084); assay: Inhibition of LasR-mediated quorum sensing system in Pseudomonas aeruginosa PAO1 assessed as inhibition of elastase production at 1.25 to 20 uM incubated for 24 hrs using BODIPY-FL-labeled DQ elastin conjugate as substrate by fluorometric method; conditions: dose 1.25-20 µM
T1 sequence (whole entry): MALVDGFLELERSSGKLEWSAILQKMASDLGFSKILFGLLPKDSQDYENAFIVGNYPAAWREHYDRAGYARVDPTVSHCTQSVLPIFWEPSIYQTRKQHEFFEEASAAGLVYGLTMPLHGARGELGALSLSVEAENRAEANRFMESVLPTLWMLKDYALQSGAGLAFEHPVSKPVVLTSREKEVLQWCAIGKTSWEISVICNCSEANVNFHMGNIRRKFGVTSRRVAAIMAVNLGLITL

[28] = Toxicity in Balb/c mouse wound infection model infected with Pseudomonas aeruginosa PAO1 assessed as morphological changes in heart at 50 uM,TOP for 3 days in Ciprofloxacin by H and E staining based analysis; type: tissue-based; conditions: in vivo, topical_or_ocular, 72 h, time 3 day
[29] = system: Pseudomonas aeruginosa; assay: Downregulation of mexE expression in Pseudomonas aeruginosa PAO1 at 20 uM incubated for 24 hrs by RNA sequencing analysis; type: functional

For `Cc1ccc2oc(=O)cc(OCCCCCCC(=O)NO)c2c1`, the inhibition [1] was “inactive”, the Activity [2] was “Active” and the Activity [3] was “Non-Toxic”. For the same molecule, the Activity [4] was “Non-Toxic”, the Activity [5] was “Non-Toxic” and the Activity [6] was “Non-Toxic”. For the same molecule, the Activity [7] was “Active”, the Activity [8] was “Active” and the Activity [9] was “Active”. The MIC [10] was greater than 256 µM, the Activity [11] was “Active” and the inhibition [12] was “inactive”. The Activity [13] was “Non-Toxic”, the Activity [14] was 6.96 µM and the IC50 [15] was 3.66 µM. The pFe(III) [16] was 20.1, the Activity [17] was “Non-Toxic” and the inhibition [18] was “Active”. For the same molecule, the inhibition [19] was “Dose-Dependent Effect”, the Activity [20] was “Dose-Dependent Effect” and the Activity [21] was 100%. The Activity [22] was “Active”, the inhibition [23] was “Dose-Dependent Effect” and the inhibition [24] was “Active”. For the same molecule, the Activity [25] was “Non-Toxic”, the inhibition [26] was “Active” and the inhibition [27] was “Dose-Dependent Effect”. For the same molecule, the Activity [28] was “Non-Toxic” and the Activity [29] was “Active”.
